Results reported in patent publication US20060142374A1, “Crystal for oral solid drug and oral solid drug for dysuria treatment containing the same” (KISSEI PHARMACEUTICAL CO., LTD., priority 2002, published 2006).

What was measured:
Format in all cases: physicochemical
[1] = Stability to light on preservation; settings: content of active ingredient decreases depending on preserved condition with time
[2] = Stability test (appearance by naked eye, purity by liquid chromatography after storage); settings: for Stability in respect of purity and appearance: summary of storage conditions 1-4
Protocol: Appearance and purity of each crystal obtained in Examples 1-3 and an amorphous obtained by freeze-drying a solution of KMD-3213 in dioxane were determined after allowing to stand under following conditions. As for appearance, it was determined by color and properties with the naked eye. Purity was determined by integral percentage method with liquid chromatography.
Condition 1: Allowing to stand at 40° C. in the constant temperature device for 28 days
Condition 2: Allowing to stand at 60° C. in the constant temperature device for 28 days
Condition 3: Allowing to stand at 80° C. in the constant temperature device for 25 days
Condition 4: Allowing to stand at 40° C. and relative humidity 75% in the constant temperature device for 28 days
The Liquid Chromatography Condition:
Detector: ultraviolet absorption spectrophotometer (wave length: 225 nm)
Column: Intertsil ODS-3 (GL Science, 5 μm, 4.6 mm×25 cm)
Column temperature: about 25° C.
Mobile Phase: To 3.9 g of sodium dihydrogen phosphate was added 2.5 mL of diluted phosphoric acid solution (1→20) accurately, and water was added to make 1000 mL of a solution accurately. A 5:2 mixed solution of the resulting solution and acetonitrile.

[3] = Moisture absorption test (weight change after storage); settings: for Moisture absorption (hygroscopicity): summary, compared with the amorphous
Protocol: In the same manner as that of Test Example 1, the crystals obtained in Examples 1-3 and the amorphous were used for the test. Approximately 1 g of test substance was weighed accurately and put it into a sample vial. After the test substance was allowed to stand in an opening constant temperature and humidity device under following condition, their differences of weights were measured.
Condition 1: Allowing to stand at 25° C. and 60% of relative humidity in the constant temperature and humidity device for 3 days
Condition 2: Allowing to stand at 40° C. and 75% of relative humidity in the constant temperature and humidity device for 3 days

[4] = Condition 1: 40° C. for 28 days
[5] = Condition 2: 60° C. for 28 days
[6] = Condition 3: 80° C. for 25 days
[7] = Condition 4: 40° C. and relative humidity 75% for 28 days
[8] = Initial, liquid chromatography, integral percentage method
[9] = Condition 1: 25° C. and 60% relative humidity for 3 days
[10] = Condition 2: 40° C. and 75% relative humidity for 3 days

Structure (SMILES)	Stability for light [1]	Appearance [2, 4]	Purity (%) [2, 4]	Appearance [2, 5]	Purity (%) [2, 5]	Appearance [2, 6]	Purity (%) [2, 6]	Appearance [2, 7]	Purity (%) [2, 7]	Appearance ([2]; Initial)	Purity (%) [2, 8]	Change(%) of weight [3, 9]	Change(%) of weight [3, 10]	Moisture absorption (hygroscopicity) [3]	Stability in respect of purity and appearance ([2]; listed as crystal form a)	Stability in respect of purity and appearance ([2]; listed as crystal form α)
C[C@H](Cc1cc2c(c(C(N)=O)c1)N(CCCO)CC2)NCCOc1ccccc1OCC(F)(F)F [KMD-3213]	unstable for light relatively	–	–	–	–	–	–	–	–	–	–	–	–	–	–	–
C[C@H](Cc1cc2c(c(C(N)=O)c1)N(CCCO)CC2)NCCOc1ccccc1OCC(F)(F)F [β, KMD-3213]	–	Pale yellow powder	99.73%	Pale yellowish	99.57%	Pale brown powder	98.42%	Pale yellow powder	99.69%	Pale yellow powder	99.83%	+0.07%	−0.08%	absorbing moisture scarcely	–	–
C[C@H](Cc1cc2c(c(C(N)=O)c1)N(CCCO)CC2)NCCOc1ccccc1OCC(F)(F)F [amorphous, KMD-3213]	–	White powder	99.66%	Pale yellow	99.56%	Pale yellowish	99.53%	White powder	99.71%	White powder	99.79%	+1.61%	+1.31%	–	–	–

Now from value to compound:

Stability for light [1]	Appearance [2, 4]	Purity (%) [2, 4]	Appearance [2, 5]	Purity (%) [2, 5]	Appearance [2, 6]	Purity (%) [2, 6]	Appearance [2, 7]	Purity (%) [2, 7]	Appearance ([2]; Initial)	Purity (%) [2, 8]	Change(%) of weight [3, 9]	Change(%) of weight [3, 10]	Moisture absorption (hygroscopicity) [3]	Stability in respect of purity and appearance ([2]; listed as crystal form a)	Stability in respect of purity and appearance ([2]; listed as crystal form α)	Structure (SMILES)
–	Pale yellow powder	99.85%	Pale yellow powder	99.84%	Pale yellow powder	99.64%	Pale yellow powder	99.85%	Pale yellow powder	99.88%	0.00%	−0.19%	absorbing moisture scarcely	–	–	C[C@H](Cc1cc2c(c(C(N)=O)c1)N(CCCO)CC2)NCCOc1ccccc1OCC(F)(F)F [γ, KMD-3213]
–	White powder	99.84%	White powder	99.84%	Pale yellow	99.58%	White powder	99.85%	White powder	99.90%	−0.01%	−0.20%	absorbing moisture scarcely	extremely stable	the most stable	C[C@H](Cc1cc2c(c(C(N)=O)c1)N(CCCO)CC2)NCCOc1ccccc1OCC(F)(F)F [α, KMD-3213]
